pIC50: −log10 of the molar value. Read-outs that look alike come from different tables or passages of the source. Where a SMILES comes first, the peptide text is derived from it. [ ]: non-standard residue; d: D form. The star is where a group is joined. Dolaproine = CO[C@@H]([C@@H]1CCCN1)[C@@H](C)C(=O)O; Dil = CC[C@H](C)[C@H](NC)[C@@H](CC(=O)O)OC; X1 = C[C@@H](N*)[C@@H](O)c1ccccc1; NMeV = CN[C@H](C(=O)O)C(C)C

The subject of one series is NCI-H1688. Description: Cell viability assay (CCK-8). The following applies: CCK-8, 96 hours, Lung, read-out: IC50 (95% Cl). The series is classed as cell-based. As for the experimental part:
(§1) Cell viability was determined using Cell Counting Kit 8 (CCK-8). Cells were seeded into 96-well plates at 3000-10000 cells/well. After incubation overnight, drugs were added at different concentrations. Plates were incubated in a 5% CO2, 37° C. humidified chamber for 96 hours. CCK8 reagent was added thereto and the plates were placed back to the incubator until the absorbance at 450 nm of untreated control cells was greater than 1.0. Growth inhibition was measured as the percent growth relative to untreated cells. Dose response curve was generated from the mean values of two or three tests, and IC50 values were calculated using Prism GraphPad software.
(§2) The anti-tumor efficacy of different payloads on different tumor cell lines was detected by CCK-8, and the results are shown in FIG. 5.

The subject of another series is SKBR3. Put plainly: Cell viability assay (CCK-8). It is filed as cell-based. The conditions noted are these: CCK-8, 96 hours, read-out: IC50 (95% Cl). As for the experimental part:
as §1, §2

The next series relates to CFPAC-1. Description: Cell viability assay (CCK-8). The series is classed as cell-based. The following applies: CCK-8, 96 hours, read-out: IC50 (95% Cl). As for the experimental part:
as §1, §2

For the next series, the system named is COLO205. Put plainly: Cell viability assay (CCK-8). The series is classed as cell-based. The following applies: CCK-8, 96 hours, read-out: IC50 (95% Cl). As for the experimental part:
as §1, §2

A further series has as its system HT29. Put plainly: Cell viability assay (CCK-8). It is filed as cell-based. The following applies: CCK-8, 96 hours, Colon, read-out: IC50 (95% Cl). As for the experimental part: as §1, §2
A further series has as its system SK-MES-1. Description: Cell viability assay (CCK-8). The series is classed as cell-based. The conditions noted are these: CCK-8, 96 hours, Lung, read-out: IC50 (95% Cl). As for the experimental part: as §1, §2
The test system of another series is HCC1806. Put plainly: Cell viability assay (CCK-8). The following applies: CCK-8, 96 hours, Mamary, read-out: IC50 (95% Cl). It is filed as cell-based. As for the experimental part:
as §1, §2

The test system of the next series is MDA-MB-468. Description: Cell viability assay (CCK-8). The series is classed as cell-based. The following applies: CCK-8, 96 hours, read-out: IC50 (95% Cl). As for the experimental part:
as §1, §2

The subject of a further series is MDA-MB-231. Description: Cell viability assay (CCK-8). It is filed as cell-based. The following applies: CCK-8, 96 hours, Mamary, read-out: IC50 (95% Cl). As for the experimental part:
as §1, §2

The next series has as its system BXPC-3. Description: Cell viability assay (CCK-8). The series is classed as cell-based. The following applies: CCK-8, 96 hours, Pancreas, read-out: IC50 (95% Cl). As for the experimental part:
as §1, §2

Another series concerns Capan-1. Put plainly: Cell viability assay (CCK-8). It is filed as cell-based. The following applies: CCK-8, 96 hours, Pancreas, read-out: IC50 (95% Cl). As for the experimental part:
as §1, §2

The next series concerns SCLC-21H. Put plainly: Cell viability assay (CCK-8). It is filed as cell-based. The conditions noted are these: CCK-8, 96 hours, read-out: IC50 (95% Cl). As for the experimental part:
as §1, §2

Series [1] relates to tumor cell lines with different expression levels of Trop-2. Description: Cell viability assay (CCK-8), comparison across the cell panel. The series is classed as cell-based. The conditions noted are these: tumor cell lines with different expression levels of Trop-2. As for the experimental part: as §1, §2
Series [2] can be described thus: Adverse effects and weight loss of mice treated in the efficacy models. It is filed as in vivo, BALB/c nu/nu mice. The source says:
Five-week-old female athymic BALB/c nu/nu mice were purchased from Charles River Company (Shanghai, China), and mice were randomly divided into 5-6 mice/group. Animal handling and procedures were approved and performed in accordance with the requirements of the Institutional Animal Care and Use Committee (IACUC) of Shanghai Institute of Materia Medica, Chinese Academy of Sciences. All models were inoculated subcutaneously on the side of mice. BXPC-3, HCC1806 and NCIH1688 cells were established by injecting and homogenizing 5 × 10^6 cells in Matrigel matrix. COLO205 cells were established by injecting and suspending 1 × 10^7 cells in Matrigel matrix. After the tumor volume reached about 200 mm^3, the tumor-bearing mice were randomly divided into treatment groups and a control group according to the tumor volume. Each drug was administered intraperitoneally. Mice were injected at doses of 3 or 10 mg/kg (10 mL/kg). Tumor volume was defined as length × ½ × width × width. The percentage of inhibition was calculated by the following formula: (1-average tumor volume of the treatment group/average tumor volume of the control group)×100%. Toxicity of the different treatment groups was assessed by monitoring weight loss.

The next series has as its system SKBR3 cells. Description: Endocytosis and intracellular localization of ADC by confocal microscopy. It is filed as cell-based. The conditions noted are these: 5 µg/mL, 37° C., 45 or 90 min. As for the experimental part:
SKBR3 cells were incubated with 5 µg/mL of hRS7-VK-PTX or hRS7-VK-SN38 in a 24-well plate (1 × 10^4 cells/well) in a 5% CO2, 37° C. incubator for 45 or 90 min. Cells were washed once with PBS, fixed and permeabilized. After washing, cells were stained with 488 goat anti-human IgG (H&L) or 555 anti-rabbit IgG F(ab′)2 fragment. Nuclear DNA was stained with 4′,6-dimidyl-2-phenylindole (DAPI). Immunofluorescence was recorded with an Olympus BK71 confocal microscope.
SKBR3 cells were incubated with ADC molecules at 37° C. for 45 or 90 min. Unbound ADC was removed by washing cells in a culture medium, then the cells were fixed and permeabilized. The marker proteins LAMP-1, GM130 and clathrin were detected with their respective antibodies and a secondary antibody conjugated to Alex®555 (red). Anti-Trop-2 ADC was detected with DyLight®488-conjugated secondary antibody (green). DAPI was used to stain nuclear DNA (blue).

The test system of another series is NCIH2452. Put plainly: Cell viability assay (CCK-8). The conditions noted are these: ADCs; CCK-8, 96 hours; cell 'HOC2401' [sic], Lung; read-out: IC50 (95% Cl). The series is classed as cell-based. As for the experimental part:
as §1, §2

Where [3] appears, read: free payloads, cell 'NCl-H1828' [sic].
The mark [4] stands for this setting: free payloads, cell 'SK8RS' [sic], Mamary.
Setting [5] is: free payloads, cell CFPAC-1, Pancreas.
The mark [6] stands for this setting: free payloads, cell 'CCAO205' [sic], Colen.
The mark [7] stands for this setting: free payloads, cell 'H123' [sic].
Setting [8] is: free payloads, cell 'SK-M55-1' [sic].
[9] abbreviates: free payloads, cell printed 'MOA-413-468', Mamary.
[10] abbreviates: free payloads, 'MCP-83-21' [sic].
Where [11] appears, read: free payloads, cell 'BKFC-Y' [sic].
[12] abbreviates: free payloads, cell 'Cepes-3' [sic].
[13] abbreviates: free payloads, cell 'ECLC 214' [sic], Small cell lung.

As for `CC[C@H](C)[C@@H]([C@@H](CC(=O)N1CCC[C@H]1[C@H](OC)[C@@H](C)C(=O)N[C@H](C)[C@@H](O)c1ccccc1)OC)N(C)C(=O)[C@@H](NC(=O)[C@@H](NC)C(C)C)C(C)C` [MMAE] (H-[NMeV]V[Dil][Dolaproine]-X1), the pIC50 (usually −log10 of the IC50, conventionally taken in molar units) is 8.76 with NCI-H1688 (setting [3]); 10.49 with SKBR3 (setting [4]); under 6.52 in the series on CFPAC-1 (setting [5]); 9.81 in the series with COLO205 (setting [6]); about 8.52 in the series with HT29 (setting [7]); 9.65 with SK-MES-1 (setting [8]). The pIC50 with HCC1806 (free payloads, 'HCCHOI' [sic]) is 10.75; in the series on MDA-MB-468 (setting [9]), about 9.85; in the series on MDA-MB-231 (setting [10]), under 6.52; with BXPC-3 (setting [11]) it was 9.58; in the series on Capan-1 (setting [12]) it was 9.44; in the series on SCLC-21H (setting [13]), 10.88.

For `CC(=O)O[C@H]1C(=O)[C@@]2(C)[C@H]([C@H](OC(=O)c3ccccc3)[C@]3(O)C[C@H](OC(=O)[C@H](O)[C@@H](NC(=O)c4ccccc4)c4ccccc4)C(C)=C1C3(C)C)[C@]1(OC(C)=O)CO[C@@H]1C[C@@H]2O` [PTX, Paclitaxel], the “cytotoxicity of individual payload molecules” value in [1] is given as “weaker than that of MMAE, but close to that of SN38”. For the same compound, the negative logarithm of the IC50 (pIC50) is 7.43 in the series with NCI-H1688 (NCI-H1688, free payloads, cell 'NCl-H1828' [sic]); about 6.07 in the series on SKBR3 (Homo sapiens, SK-BR-3, free payloads, cell 'SK8RS' [sic], Mamary); under 6.52 with CFPAC-1 (Homo sapiens, free payloads, cell CFPAC-1, Pancreas); under 6.52 in the series with COLO205 (Homo sapiens, COLO 205, free payloads, cell 'CCAO205' [sic], Colen); under 6.52 in the series on HT29 (Homo sapiens, HT-29, free payloads, cell 'H123' [sic]); 7.27 with SK-MES-1 (Homo sapiens, SK-MES-1, free payloads, cell 'SK-M55-1' [sic]). The negative-log IC50 (pIC50) in the series on HCC1806 (Homo sapiens, HCC1806, free payloads, 'HCCHOI' [sic]) was 8.61; in the series on MDA-MB-468 (Homo sapiens, MDA-MB-468, free payloads, cell printed 'MOA-413-468', Mamary), 8.14; in the series with MDA-MB-231 (Homo sapiens, MDA-MB-231, free payloads, 'MCP-83-21' [sic]), under 6.52; with BXPC-3 (Homo sapiens, BXPC-3, free payloads, cell 'BKFC-Y' [sic]) it was 9.33; with Capan-1 (Homo sapiens, CAPAN-1, free payloads, cell 'Cepes-3' [sic]), 8.13; in the series with SCLC-21H (Homo sapiens, SCLC-21H, free payloads, cell 'ECLC 214' [sic], Small cell lung), about 7.49. The “adverse effects or weight loss in treated mice, relative to hRS7-VK-PTX (none)” value in series [2] (hRS7-VK-MMAE 3 mg/kg, hRS7-VK-SN38 3 or 10 mg/kg, PTX alone) is on record as “stark contrast”.

Take `CCc1c2c(nc3ccc(O)cc13)-c1cc3c(c(=O)n1C2)COC(=O)[C@]3(O)CC` [SN38]: the negative logarithm of the IC50 (pIC50) in the series with NCI-H1688 (setting [3]) is about 8.31; in the series on SKBR3 (setting [4]), 8.67; in the series with CFPAC-1 (setting [5]), about 9.55; in the series with COLO205 (setting [6]), 7.48; in the series with HT29 (setting [7]), under 6.52; in the series with SK-MES-1 (setting [8]), 8.26. Moreover, the negative logarithm of the IC50 (pIC50) was 9.38 in the series with HCC1806 (free payloads, 'HCCHOI' [sic]); 8.43 in the series with MDA-MB-468 (setting [9]); 6.99 with MDA-MB-231 (setting [10]); 7.68 in the series on BXPC-3 (setting [11]); 8.25 with Capan-1 (setting [12]); 8.67 with SCLC-21H (setting [13]).

For hRS7-VK-SN38, the “internalization and intracellular localization” value with SKBR3 cells is “did not undergo significant internalization”. Further, the negative-log IC50 (pIC50) with NCI-H1688 (ADCs, cell 'HCl-11685' [sic]) was under 6.52; with SKBR3 (ADCs, 'SKERS' [sic], Mammary) it was 8.84; in the series on CFPAC-1 (ADCs, cell CPAC-1 [sic], Pancreas) it was 8.50; in the series on COLO205 (ADCs, cell printed 'COXC28', Colon), 7.78; in the series with HT29 (ADCs, cell '3128' [sic]) it was 8.25; in the series with SK-MES-1 (ADCs, cell 'SK-WSS-7' [sic]), 7.09. Moreover, the negative-log IC50 (pIC50) with HCC1806 (ADCs, 'HOC1906' [sic]) is 9.06; in the series on MDA-MB-468 (ADCs, SRM-M9-409, Mammary), 8.86; in the series on MDA-MB-231 (ADCs, cell 'SRM-K9-231' [sic]), 8.52; in the series on BXPC-3 (ADCs, cell RMCA [sic]) it was 8.81; in the series with Capan-1 (ADCs, Cxoo-1 [sic]), 7.91; in the series on SCLC-21H (ADCs, SRM-C-21H), 7.79. Further, the negative-log IC50 (pIC50) with NCIH2452 is 7.99. Besides, the “adverse effects or weight loss in treated mice, relative to hRS7-VK-PTX (none)” value in [2] (mouse, in vivo) is listed as “stark contrast”.
